We go through five molecules from patent US12428413B2 (CHDI Foundation, Inc., priority 2019, dated 2025).

Test [1] concerns hepatic ischemia/reperfusion in rats. The conditions noted are these: oral pretreatment, 25% in vehicle-treated animals; cited from earlier work.
The subject of test [2] is cellular ROCK activity (cofilin phosphorylation at Ser3) in A7r5 rat smooth muscle cells. The test can be described thus: Cellular ROCK activity: cofilin (Ser3) phosphorylation, In-Cell Western assay. It counts as cell-based. The conditions noted are these: Rattus norvegicus, A7R5, 1 h, 1 hour compound incubation, phospho-cofilin (Ser3), read-out: CELL_IC50. Put shortly: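 A7r5 rat smooth muscle cells (3000/well, overnight) exposed to compound for 1 h at 37° C., then formaldehyde-fixed. Phospho-cofilin Ser3 detected by In-Cell Western with 800CW secondary antibody, read at 700 and 800 nm on an Odyssey imager.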

The target in test [3] is T1, human catalytic domain ROCK II protein (amino acids 5-554) with a N-terminal GST tag (Homo sapiens, UniProt O75116).
For test [4] the following is noted: from 1 through 7 hours after instillation; cited from earlier work.
Test [5] addresses T1, human catalytic domain ROCK II protein (amino acids 5-554) with a N-terminal GST tag. The test can be described thus: biochemical.

Read-outs that look alike come from different tables or passages of the source.

T1 sequence (O75116 5-554): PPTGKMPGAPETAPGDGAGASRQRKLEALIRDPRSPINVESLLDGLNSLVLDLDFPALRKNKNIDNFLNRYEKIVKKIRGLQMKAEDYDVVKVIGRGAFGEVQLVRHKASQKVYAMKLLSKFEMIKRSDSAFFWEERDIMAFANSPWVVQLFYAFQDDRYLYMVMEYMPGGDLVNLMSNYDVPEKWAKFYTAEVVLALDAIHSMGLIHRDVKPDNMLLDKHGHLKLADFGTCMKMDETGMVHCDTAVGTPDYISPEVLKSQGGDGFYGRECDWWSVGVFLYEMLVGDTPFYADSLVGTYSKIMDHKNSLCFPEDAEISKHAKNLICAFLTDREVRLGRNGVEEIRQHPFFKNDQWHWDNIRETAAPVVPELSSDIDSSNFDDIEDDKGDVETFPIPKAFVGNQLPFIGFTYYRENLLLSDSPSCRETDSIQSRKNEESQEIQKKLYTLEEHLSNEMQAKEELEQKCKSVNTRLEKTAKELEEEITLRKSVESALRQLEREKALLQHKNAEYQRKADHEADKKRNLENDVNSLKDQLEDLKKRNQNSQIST

For the molecule `C[C@@H](N)[C@H]1CC[C@H](C(=O)Nc2ccncc2)CC1` [Example Y27632], in test [1], the “survival at one week after ischemia” value was 75%. Consider `COc1cccc([C@@H](C)NC(=O)N2CCN(c3ccncc3F)C[C@H]2C)c1F` [Example 44, (R)—N—((R)-1-(2-Fluoro-3-methoxyphenyl)ethyl)-4-(3-fluoropyridin-4-yl)-2-methylpiperazine-1-carboxamide], for which the IC50 in test [2] is 323 nM; in test [3], 26.3 nM. Take `C[C@H]1CNCCCN1S(=O)(=O)c1cccc2cncc(F)c12` [Ripasudil]: in test [4], the intraocular pressure reduction entry was “Significant intraocular pressure reduction”. With `[2H]C([2H])([2H])Oc1cccc([C@H](NC(=O)N2CCN(c3ccncc3F)CC2)C([2H])([2H])[2H])c1` [Example 131], the IC50 in test [5] turned out to be 8 nM; in test [2] it was 152 nM. The like results for `COc1cccc([C@@H](C)NC(=O)N2[C@H](C)CN(c3ccnc(F)c3)C[C@H]2C)c1` [Example 15, (2R,6R)-4-(2-Fluoropyridin-4-yl)-N—((R)-1-(3-methoxyphenyl)ethyl)-2,6-dimethylpiperazine-1-carboxamide] were, in that order, 75.9 nM and 1390 nM.
